The values that follow are results of earlier work, collected in patent US7601427B2, “Curable composition, cured film, antireflection film, polarizing plate and liquid crystal display” (Fujifilm Corporation, priority 2005, dated 2009).

The conditions of the data set: pKa of conjugate acid, aqueous solution, from Kagaku Binran.

Turning to `CN(C)CCO` [b-17, N,N′-Dimethyl-2-aminoethanol], the pKa was 9.5.
